The results in this text go back to patent US6121489A (priority 1997, dated 2000).

SMILES strings stand for the structures. Bounds are passed on as bounds.

In this test the target is α-glucosidase from bakers yeast. The test can be described thus: α-Glucosidase inhibition assay, p-nitrophenyl-α-D-glucopyranoside substrate, 96-well format. Type of test: biochemical. To be noted: concentration necessary for 50% enzyme inhibition.

A word on the IC50: it is the concentration that gives 50% inhibition. Compound `N[C@@H](Cc1cn(Cc2ccc3ccccc3c2)c2ccccc12)C(=O)N(Cc1ccc2ccccc2c1)[C@H](Cc1ccc2ccccc2c1)C(=O)NCc1ccccc1` [R-(napth-2-ylmethyl)] registered an IC50 of more than 1000 µM.

Regarding `NC(Cc1cn(Cc2ccc3ccccc3c2)c2ccccc12)C(=O)N(Cc1ccc2ccccc2c1)C(Cc1cn(Cc2ccccc2)c2ccccc12)C(=O)NCc1ccccc1` (stereo not drawn) [R-(N'-benzylindol-3-ylmethyl)], 552 µM corresponded to half-maximal inhibition (IC50).

For the compound `CC(O)C(C(=O)NCc1ccccc1)N(Cc1ccc2ccccc2c1)C(=O)C(N)Cc1cn(Cc2ccc3ccccc3c2)c2ccccc12` (stereo not drawn) [R-(1-hydroxyethyl)], the IC50 was more than 1000 µM.

`NC(Cc1cn(Cc2ccc3ccccc3c2)c2ccccc12)C(=O)N(Cc1ccc2ccccc2c1)C(CO)C(=O)NCc1ccccc1` (stereo not drawn) [S-(1-hydroxymethyl)]: the IC50 amounted to 176 µM.

Turning to `CCN(C(=O)[C@@H](N)Cc1ccccc1)[C@H](C(=O)NCc1ccc2ccccc2c1)c1ccccc1` [S-(phenyl)], it took 184 µM to reach half-maximal inhibition (IC50).

`CCN(C(=O)[C@@H](N)Cc1ccccc1)[C@H](Cc1ccc(O)cc1)C(=O)NCc1ccc2ccccc2c1` [R-(4-hydroxybenzyl)] had an IC50 of 540 µM.

`N[C@@H](Cc1cn(Cc2ccc3ccccc3c2)c2ccccc12)C(=O)N(Cc1ccc2ccccc2c1)[C@@H](CCC(=O)O)C(=O)NCc1ccccc1` [S-(2-carboxyethyl)] showed an IC50 of more than 1000 µM.

Consider `N[C@@H](Cc1cn(Cc2ccc3ccccc3c2)c2ccccc12)C(=O)N(Cc1ccc2ccccc2c1)[C@@H](Cc1cn(Cc2ccccc2)c2ccccc12)C(=O)NCc1ccccc1` [S-(N'-benzylindol-3-ylmethyl)], for which the IC50 is 632 µM.

On to `CC(O)C(C(=O)NCc1ccccc1)N(Cc1ccc2ccccc2c1)C(=O)C(N)Cc1cn(Cc2ccc3ccccc3c2)c2ccccc12` (stereo not drawn) [R'-(1-hydroxyethyl)], for which the half-maximal inhibitory concentration (IC50) stood at 678 µM.

Turning to `CCN(C(=O)[C@@H](N)Cc1ccccc1)[C@@H](Cc1ccc2ccccc2c1)C(=O)NCc1ccc2ccccc2c1` [S-(napth-2-ylmethyl)], the IC50 was more than 1000 µM.

Turning to `NC(Cc1cn(Cc2ccc3ccccc3c2)c2ccccc12)C(=O)N(Cc1ccc2ccccc2c1)C(CC1CCCCC1)C(=O)NCc1ccccc1` (stereo not drawn) [R-(cyclohexylmethyl)], the IC50 is more than 1000 µM.

Turning to `N[C@@H](Cc1cn(Cc2ccc3ccccc3c2)c2ccccc12)C(=O)N(CCC(=O)NCc1ccccc1)Cc1ccc2ccccc2c1` [hydrogen atom, AA = 1], the IC50 came to 770 µM.
